# Source: patent publication US20100226853A1 (priority 2007, published 2010)
# Where two headings read alike, the source gives them in different places.
# Columns and labels:
# K562 cells = test: Cellular proliferation, [3H]thymidine uptake; assay type: cell-based; conditions: Homo sapiens, K562, read-out: IC50, K562 cells proliferation
# Method: (§1) The immortalized human hematopoietic Philadelphia chromosome-positive cytokine independent R10(−) M07e^p210 cell line (46) was maintained in Iscove's modified Dulbecco's medium (Life Technologies, Inc., Grand Island, N.Y.) containing 10% FCS (Hyclone, Logan, Utah). The parental M07e megakaryoblastic cell line was a kind gift of Brian Druker and was maintained in the presence of 50 ng/mL kit ligand (SCF) as described (46-47) K562 was obtained from the ATCC. […] Tumor cell cultures were maintained in a humidified atmosphere with 5% CO2 at 37° C. (NuAire).
# (§2) Data points for all assays were obtained in triplicate, and background incorporation from cell-free wells was determined and subtracted from all data points. The data was analyzed using a non-linear regression fit to a sigmoidal dose-response curve using Prism 4 (GraphPad Software, Inc).
# [1] = system: R10 neg cells (MO7e/p210^bcr-abl); test: Cellular proliferation, [3H]thymidine uptake; assay type: cell-based; conditions: Homo sapiens, read-out: IC50, R10 neg cells (MO7e/p210^bcr-abl) proliferation
# Method: as §1, §2
# B6D2F1 mice = test: Acute toxicity in mice; assay type: in vivo; conditions: for toxicity in mice: 0.1 mg/kg intravenously, single dose, 14 days observation
# Source text: Each group contained three mice. […] There were five males and five females in either control or treatment group. […] Mice were sent for pathology, including complete blood cell count, complete chemistry panel and complete necropsy. Two intact male mice and two intact female mice were also sent and used as references.
# ABL [2] = target: T1, ABL (Homo sapiens, UniProt P00519); test: QuickScout ELISA kinase panel; assay type: biochemical; design: purchased Carna Biosciences (QuickScout service)
# Source text: (§3) An ELISA-based assay was used in which the phosphorylation of an oligopeptide substrate was detected by an HRP-conjugated anti-p-Tyr (PY20) probe.
# [3] = Octanol/water partition coefficient determination; assay type: physicochemical; conditions: n-octanol/water
# [4] = Protein binding assay, serum; assay type: in vitro ADME; conditions: fresh human serum
# Method: Protein binding of the radiotracers were determined adding 37 kBq (1 μCi) of each radioligand to samples of 1% bovine serum albumin and 1 mL of fresh human serum. The protein was precipitated by adding 1 mL of ice cold 20% trichloroacetic acid and the suspension centrifuged and washing with 1 mL of 20% ice cold trichloroacetic acid. The protein pellets and supernatants were counted in a gamma counter to determine the protein binding of the radioligands.
# KDR = target: T2, KDR (Homo sapiens, UniProt P35968); test: QuickScout ELISA kinase panel; assay type: biochemical; conditions: Compound 5 at 10 nM; negative = enhanced phosphorylation
# T2 construct: purchased Carna Biosciences (Kobe, Japan), QuickScout service
# Source text: as §3
# TRKA = target: T3, TRKA (Homo sapiens, UniProt P04629); test: QuickScout ELISA kinase panel; assay type: biochemical; conditions: Compound 5 at 10 nM; negative = enhanced phosphorylation
# T3 construct: purchased Carna Biosciences (Kobe, Japan), QuickScout service
# Source text: as §3
# SYK = target: T4, SYK (Homo sapiens, UniProt P43405); test: QuickScout ELISA kinase panel; assay type: biochemical; conditions: read-out: % Inhibition of Kinase Activity, SYK
# T4 construct: purchased Carna Biosciences (Kobe, Japan), QuickScout service
# Source text: as §3
# TIE2 = target: T5, TIE2 (Homo sapiens, UniProt Q02763); test: QuickScout ELISA kinase panel; assay type: biochemical; conditions: Compound 5 at 10 nM; negative = enhanced phosphorylation
# T5 construct: purchased Carna Biosciences (Kobe, Japan), QuickScout service
# Source text: as §3
# FGFR1 = target: T6, FGFR1 (Homo sapiens, UniProt P11362); test: QuickScout ELISA kinase panel; assay type: biochemical; conditions: Compound 5 at 10 nM
# T6 construct: purchased Carna Biosciences (QuickScout service)
# Source text: as §3
# IGF1R = target: T7, IGF1R (Homo sapiens, UniProt P08069); test: QuickScout ELISA kinase panel; assay type: biochemical; conditions: Compound 5 at 10 nM
# T7 construct: purchased Carna Biosciences (QuickScout service)
# Source text: as §3
# EGFR = target: T8, EGFR (Homo sapiens, UniProt P00533); test: QuickScout ELISA kinase panel; assay type: biochemical; conditions: Compound 5 at 10 nM
# T8 construct: purchased Carna Biosciences (QuickScout service)
# Source text: as §3
# FAK = target: T9, FAK (Homo sapiens, UniProt Q05397); test: QuickScout ELISA kinase panel; assay type: biochemical; conditions: read-out: % Inhibition of Kinase Activity, FAK
# T9 construct: purchased Carna Biosciences (QuickScout service)
# Source text: as §3
# KIT = target: T10, KIT (Homo sapiens, UniProt P10721); test: QuickScout ELISA kinase panel; assay type: biochemical
# T10 construct: purchased Carna Biosciences (Kobe, Japan), QuickScout service
# Source text: as §3
# M07e cells = test: Cellular proliferation, [3H]thymidine uptake, Kit ligand dependent growth; assay type: cell-based; conditions: Homo sapiens, M-07e, read-out: IC50, M07e cells proliferation
# Method: The immortalized human hematopoietic Philadelphia chromosome-positive cytokine independent R10(−) M07e^p210 cell line (46) was maintained in Iscove's modified Dulbecco's medium (Life Technologies, Inc., Grand Island, N.Y.) containing 10% FCS (Hyclone, Logan, Utah). The parental M07e megakaryoblastic cell line was a kind gift of Brian Druker and was maintained in the presence of 50 ng/mL kit ligand (SCF) as described (46-47) K562 was obtained from the ATCC. K562 was maintained in suspension in 90% RPMI 1640 medium supplemented with 10% FBS, 2 mM L-glutamine, 10 mM HEPES, 1 mM sodium pyruvate, 1.5 g/L sodium bicarbonate, 4.5 g/L […], 10% FBS, 100 IU/mL penicillin and 100 μg/ml streptomycin. Tumor cell cultures were maintained in a humidified atmosphere with 5% CO2 at 37° C. (NuAire).
# . Data points for all assays were obtained in triplicate, and background incorporation from cell-free wells was determined and subtracted from all data points. The data was analyzed using a non-linear regression fit to a sigmoidal dose-response curve using Prism 4 (GraphPad Software, Inc).
# CSK = target: T11, CSK (Homo sapiens, UniProt P41240); test: QuickScout ELISA kinase panel; assay type: biochemical; conditions: Compound 5 at 10 nM
# T11 construct: purchased Carna Biosciences (QuickScout service)
# Source text: (§4) . […] An ELISA-based assay was used in which the phosphorylation of an oligopeptide substrate was detected by an HRP-conjugated anti-p-Tyr (PY20) probe. […]. The data appears in Table 2 in Example 3.
# MET = target: T12, MET (Homo sapiens, UniProt P08581); test: QuickScout ELISA kinase panel; assay type: biochemical; conditions: Compound 5 at 10 nM
# T12 construct: purchased Carna Biosciences (QuickScout service)
# Source text: as §4
# ABL [5] = target: T1, ABL; assay type: biochemical; design: purchased Invitrogen; conditions: mean of three experiments; read-out: IC50, Abl protein
# Method: Kinase was preincubated with inhibitor at 37° C. for 10 min prior to starting the reaction upon addition of ATP; Assay was carried out in 384 well clear plates (Corning) and absorbance was measured on SpectraMax plate reader (Molecular Devices). Reaction rates were plotted against inhibitor concentration and fitted using SigmaPlot 9.0 (Systat Software Inc.).
# [6] = 0.1 mg/kg i.v., 14 days, average, same in control group
# T1 sequence (P00519 whole entry): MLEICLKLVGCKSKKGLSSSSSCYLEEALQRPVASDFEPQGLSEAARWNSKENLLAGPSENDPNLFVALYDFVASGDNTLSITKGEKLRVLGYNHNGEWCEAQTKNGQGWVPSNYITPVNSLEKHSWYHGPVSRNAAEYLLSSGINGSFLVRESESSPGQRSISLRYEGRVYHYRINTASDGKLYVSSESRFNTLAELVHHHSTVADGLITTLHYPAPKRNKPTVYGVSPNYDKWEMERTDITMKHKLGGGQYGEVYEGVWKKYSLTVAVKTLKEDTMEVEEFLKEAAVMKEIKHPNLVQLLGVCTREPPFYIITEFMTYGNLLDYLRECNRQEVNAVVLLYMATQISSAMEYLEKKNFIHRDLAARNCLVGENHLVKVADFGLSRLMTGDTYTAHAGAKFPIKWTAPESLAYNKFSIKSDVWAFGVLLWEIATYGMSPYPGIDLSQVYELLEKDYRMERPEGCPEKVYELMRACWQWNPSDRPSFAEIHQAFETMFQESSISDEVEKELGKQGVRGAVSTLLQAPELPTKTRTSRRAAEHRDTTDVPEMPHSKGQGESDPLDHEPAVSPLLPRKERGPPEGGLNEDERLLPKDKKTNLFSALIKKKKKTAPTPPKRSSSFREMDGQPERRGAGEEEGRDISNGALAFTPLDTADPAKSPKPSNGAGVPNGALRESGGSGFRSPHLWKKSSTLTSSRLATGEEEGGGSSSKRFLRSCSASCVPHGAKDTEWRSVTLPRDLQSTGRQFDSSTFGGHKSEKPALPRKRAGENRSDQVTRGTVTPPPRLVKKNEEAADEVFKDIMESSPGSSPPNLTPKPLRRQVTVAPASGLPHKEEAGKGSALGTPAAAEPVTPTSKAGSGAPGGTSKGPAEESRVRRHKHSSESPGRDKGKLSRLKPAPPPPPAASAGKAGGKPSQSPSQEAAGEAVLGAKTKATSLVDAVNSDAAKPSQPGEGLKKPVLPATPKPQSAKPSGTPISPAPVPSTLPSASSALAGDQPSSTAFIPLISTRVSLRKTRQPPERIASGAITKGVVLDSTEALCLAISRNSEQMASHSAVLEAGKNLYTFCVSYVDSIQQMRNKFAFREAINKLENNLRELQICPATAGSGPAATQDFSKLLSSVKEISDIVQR
# T10 sequence (P10721 26-976): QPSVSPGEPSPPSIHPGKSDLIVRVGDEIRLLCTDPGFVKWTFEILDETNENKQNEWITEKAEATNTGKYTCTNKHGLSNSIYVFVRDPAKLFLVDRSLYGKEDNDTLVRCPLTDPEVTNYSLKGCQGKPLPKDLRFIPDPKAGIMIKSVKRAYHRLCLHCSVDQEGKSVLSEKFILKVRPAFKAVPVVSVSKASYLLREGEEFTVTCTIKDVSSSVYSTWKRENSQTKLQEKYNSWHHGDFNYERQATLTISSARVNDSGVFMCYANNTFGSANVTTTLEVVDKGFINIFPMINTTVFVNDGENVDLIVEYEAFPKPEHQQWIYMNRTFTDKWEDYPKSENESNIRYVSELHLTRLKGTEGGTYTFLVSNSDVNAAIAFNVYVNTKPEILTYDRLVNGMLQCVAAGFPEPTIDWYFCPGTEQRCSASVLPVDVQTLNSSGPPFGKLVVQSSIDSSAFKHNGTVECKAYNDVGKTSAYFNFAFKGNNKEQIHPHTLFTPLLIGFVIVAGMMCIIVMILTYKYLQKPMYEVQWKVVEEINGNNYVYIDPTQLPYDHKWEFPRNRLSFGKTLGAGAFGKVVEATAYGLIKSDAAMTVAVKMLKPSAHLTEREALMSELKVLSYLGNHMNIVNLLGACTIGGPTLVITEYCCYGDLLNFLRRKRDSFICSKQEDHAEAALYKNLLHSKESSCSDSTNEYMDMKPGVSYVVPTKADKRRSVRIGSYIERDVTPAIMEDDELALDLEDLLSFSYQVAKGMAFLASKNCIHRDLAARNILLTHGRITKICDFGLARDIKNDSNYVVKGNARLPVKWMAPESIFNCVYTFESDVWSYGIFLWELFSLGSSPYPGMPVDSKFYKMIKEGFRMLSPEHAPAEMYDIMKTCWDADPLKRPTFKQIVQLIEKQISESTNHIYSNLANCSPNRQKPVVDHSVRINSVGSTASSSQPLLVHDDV
# T11 sequence (P41240 whole entry): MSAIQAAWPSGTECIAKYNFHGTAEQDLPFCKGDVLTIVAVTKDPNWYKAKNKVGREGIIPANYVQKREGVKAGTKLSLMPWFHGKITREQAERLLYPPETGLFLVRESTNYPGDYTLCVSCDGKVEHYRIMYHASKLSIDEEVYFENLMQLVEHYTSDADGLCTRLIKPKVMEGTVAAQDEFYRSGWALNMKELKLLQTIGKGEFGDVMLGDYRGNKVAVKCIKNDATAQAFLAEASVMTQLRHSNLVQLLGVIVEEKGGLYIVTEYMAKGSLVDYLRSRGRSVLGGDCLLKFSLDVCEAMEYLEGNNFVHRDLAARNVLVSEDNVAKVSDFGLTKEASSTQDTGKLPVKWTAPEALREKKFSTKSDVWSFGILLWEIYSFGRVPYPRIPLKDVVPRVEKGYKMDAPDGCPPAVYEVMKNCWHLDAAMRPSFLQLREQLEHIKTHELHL
# T8 sequence (P00533 25-1210): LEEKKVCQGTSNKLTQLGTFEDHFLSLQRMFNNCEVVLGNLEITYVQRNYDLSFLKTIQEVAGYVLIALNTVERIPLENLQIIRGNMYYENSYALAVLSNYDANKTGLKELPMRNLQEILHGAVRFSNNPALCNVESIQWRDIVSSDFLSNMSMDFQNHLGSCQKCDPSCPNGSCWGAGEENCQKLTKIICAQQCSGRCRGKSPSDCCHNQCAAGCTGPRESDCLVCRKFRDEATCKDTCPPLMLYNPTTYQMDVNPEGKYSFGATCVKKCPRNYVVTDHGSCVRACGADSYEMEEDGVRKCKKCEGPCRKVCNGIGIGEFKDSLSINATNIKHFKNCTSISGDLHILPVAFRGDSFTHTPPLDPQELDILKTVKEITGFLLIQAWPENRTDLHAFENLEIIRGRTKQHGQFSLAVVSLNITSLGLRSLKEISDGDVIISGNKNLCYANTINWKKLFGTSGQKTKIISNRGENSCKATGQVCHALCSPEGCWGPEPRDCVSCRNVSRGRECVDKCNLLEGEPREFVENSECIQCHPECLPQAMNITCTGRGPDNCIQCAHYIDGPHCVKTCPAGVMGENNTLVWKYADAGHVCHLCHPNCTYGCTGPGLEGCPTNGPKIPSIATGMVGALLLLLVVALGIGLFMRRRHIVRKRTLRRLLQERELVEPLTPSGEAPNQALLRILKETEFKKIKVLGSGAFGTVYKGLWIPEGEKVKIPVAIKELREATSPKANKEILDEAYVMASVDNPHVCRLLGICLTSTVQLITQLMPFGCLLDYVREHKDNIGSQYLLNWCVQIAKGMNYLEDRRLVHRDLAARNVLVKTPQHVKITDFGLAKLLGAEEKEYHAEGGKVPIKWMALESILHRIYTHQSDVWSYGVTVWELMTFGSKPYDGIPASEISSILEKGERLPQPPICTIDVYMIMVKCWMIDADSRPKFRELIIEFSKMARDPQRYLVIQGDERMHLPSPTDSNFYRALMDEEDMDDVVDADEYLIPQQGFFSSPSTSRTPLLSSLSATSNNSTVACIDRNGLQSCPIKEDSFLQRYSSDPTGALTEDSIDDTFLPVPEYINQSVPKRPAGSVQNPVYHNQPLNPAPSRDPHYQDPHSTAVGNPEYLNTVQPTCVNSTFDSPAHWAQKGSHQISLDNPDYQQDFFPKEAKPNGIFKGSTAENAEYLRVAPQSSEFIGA
# T5 sequence (Q02763 23-1124): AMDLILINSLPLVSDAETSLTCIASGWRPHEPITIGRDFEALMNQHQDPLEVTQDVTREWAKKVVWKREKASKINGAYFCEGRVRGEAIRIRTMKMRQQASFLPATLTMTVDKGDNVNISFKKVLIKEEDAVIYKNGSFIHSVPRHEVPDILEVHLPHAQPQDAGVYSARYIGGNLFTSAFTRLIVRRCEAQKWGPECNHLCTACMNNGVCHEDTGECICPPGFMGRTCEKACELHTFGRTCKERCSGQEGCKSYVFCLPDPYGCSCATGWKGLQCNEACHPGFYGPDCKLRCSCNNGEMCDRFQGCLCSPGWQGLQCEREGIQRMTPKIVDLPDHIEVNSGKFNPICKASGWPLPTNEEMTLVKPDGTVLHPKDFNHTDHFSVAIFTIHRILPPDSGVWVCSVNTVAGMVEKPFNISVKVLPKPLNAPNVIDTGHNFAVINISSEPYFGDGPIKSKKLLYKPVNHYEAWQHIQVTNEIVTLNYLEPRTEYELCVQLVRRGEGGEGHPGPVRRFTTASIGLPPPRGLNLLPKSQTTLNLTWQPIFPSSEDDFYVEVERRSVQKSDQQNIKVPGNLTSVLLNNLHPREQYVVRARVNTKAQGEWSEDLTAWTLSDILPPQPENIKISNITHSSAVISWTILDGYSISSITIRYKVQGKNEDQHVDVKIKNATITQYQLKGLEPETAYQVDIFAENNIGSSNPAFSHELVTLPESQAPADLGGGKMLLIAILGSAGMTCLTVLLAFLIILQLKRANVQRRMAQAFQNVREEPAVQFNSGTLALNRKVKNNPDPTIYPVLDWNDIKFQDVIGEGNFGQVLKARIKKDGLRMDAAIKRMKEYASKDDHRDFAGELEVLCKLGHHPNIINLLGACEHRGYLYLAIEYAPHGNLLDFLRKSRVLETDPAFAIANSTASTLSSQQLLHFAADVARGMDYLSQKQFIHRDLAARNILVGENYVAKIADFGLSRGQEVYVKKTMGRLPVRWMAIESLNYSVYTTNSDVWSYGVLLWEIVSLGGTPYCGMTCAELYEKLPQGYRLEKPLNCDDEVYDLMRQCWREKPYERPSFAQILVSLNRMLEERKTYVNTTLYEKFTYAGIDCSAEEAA
smiles,measurement,setting,value
"Cc1nc(Nc2ncc(C(=O)Nc3c(C)cccc3Cl)s2)cc(N2CCN(CCF)CC2)n1 [Compound 5, N-(2-Chloro-6-methylphenyl)-2-(6-(4-(2-fluoroethyl)piperazin-1-yl)-2-methylpyrimidin-4-ylamino)thiazole-5-carboxamide]",IC50,K562 cells,1.1 nM
same,IC50,[1],0.1 nM
same,"body weight gain, female mice",B6D2F1 mice; [6],0.5 g
same,"body weight gain, male mice",B6D2F1 mice; [6],1.8 g
same,toxicity in mice,B6D2F1 mice,has not shown toxicity
same,toxicity in mice,B6D2F1 mice; listed as fluoro derivative 5,safe and nontoxic
same,IC50,ABL [2],< 2 nM
same,inhibition at 0.01 µM,ABL [2]; Compound 5 at 10 nM,> 97%
same,"% Inhibition of Kinase Activity, ABL","ABL [2]; Compound 5 at 10 nM, 0.01 µM",99.4%
same,logD at 2 h,[3],2.1 ± 0.6
same,protein bound in serum,[4],98.5±1.0%
same,inhibition at 0.01 µM,KDR,-5.6%
same,inhibition at 0.01 µM,TRKA,-0.9%
same,inhibition at 0.01 µM,SYK,4.5%
same,inhibition at 0.01 µM,TIE2,-51.7%
same,inhibition at 0.01 µM,FGFR1,20.4%
same,inhibition at 0.01 µM,IGF1R,5.9%
same,inhibition at 0.01 µM,EGFR,27.2%
same,inhibition at 0.01 µM,FAK,-18.3%
same,IC50,KIT,< 2 nM
same,inhibition at 0.01 µM,KIT; Compound 5 at 10 nM,> 97%
same,"% Inhibition of Kinase Activity, KIT","KIT; Compound 5 at 10 nM, 0.01 µM",98.7%
same,IC50,M07e cells,1.1 nM
same,inhibition at 0.01 µM,CSK,95.2%
same,inhibition at 0.01 µM,MET,7.2%
same,IC50,ABL [5],9.1 ± 0.8 nM
